Legend:
[1] = test system: SRS-A induced contraction of guinea pig ileum; assay: In vitro SRS-A antagonism; conditions: 30 seconds pretreatment
Description: (j) In vitro SRS-A Antagonism
SRS-A was determined by bioassay on the guinea pig ileum using a modification of the method described by Orange et al., Adv. Immunol., 1969, 10, 105. A 1.5 cm segment of the ileum, obtained from male guinea pigs (175-200 g), was suspended in an organ bath containing Tyrodes solution with 10^-6 M atropine sulfate and 10^-6 M pyrilamine maleate. The bath was maintained at 37° C. and gassed with a mixture of 95 percent oxygen and 5 percent carbon dioxide. The ileum was attached to a strain gauge transducer and isotonic contractions recorded by a strip chart recorder. A resting tension of 0.5 g was applied and the tissue allowed to equilibrate for 1 hour.
The SRS-A used in these studies was obtained by challenging a large quantity of chopped lung fragments from actively sensitized guinea pigs with egg albumin in vitro. The animals were sensitized to egg albumin by an intraperitoneal injection of the antigen (1 ml of 10 mg/ml) in saline 28 to 45 days prior to challenge. The in vitro challenge was carried out by first preincubating the lung tissue (40 mg/ml) at 37° C. in Tyrodes solution for 5 minutes, adding the egg albumin ([…] final concentration) to the fragments and after a 10 minute challenge, separating the media containing the SRS-A from the lung tissue by filtration on Whatman #1 filter paper. The concentration of SRS-A in the filtrate was calibrated by comparison of the contraction amplitude elicited in the bioassay system by a given volume of the supernatant with contractions obtained by varying concentrations of histamine. One unit of SRS-A is equivalent to that quantity which will give the same contraction as 5 ng of histamine. After standarization, the SRS-A was stored in small aliquots at -80° C. for further use. […] SRS-A antagonism was determined by pretreating the ileum with drug for 30 seconds prior to the addition of a concentration of SRS-A which have a submaximal response, determination of the amplitude of contraction elicited in the presence of drug and then washing the ileum with Tyrodes. […]

[2] = test system: leukotriene E induced bronchoconstriction; assay: Guinea pig bronchoconstriction, in vivo (aerosol); parameters: species or system guinea pig (Hartly strain); conditions: aerosol at concentration inhibiting bronchoconstriction by 80%
Description: (c) Guinea Pig Bronchoconstriction, In Vivo (Aerosol):
Male guinea pigs (Hartly strain) weighing 300 to 500 g are anesthetized with urethane (2 g/kg) intraperitoneally and a polyethylene cannula is inserted into the jugular vein for drug administration. Tracheal pressure is recorded from a cannula inserted in the trachea and connected to a Statham pressure transducer. After surgical preparation of the animals, a period of time is allowed for pulmonary functions to stabilize. The test compound is administered according to the following protocol. Propranolol (0.1 mg/kg) is administered intravenously while the animals breathed spontaneously. Five minutes thereafter, the animals are exposed for a five minute period to a 1% (w/v) aerosol solution of test compound (adjusted to an alkaline pH where necessary for drug solubilization) or to distilled water of the appropriate pH (for control purposes). A Monaghan (Model 750) ultrasonic nebulizer is used to administer all test compounds by inhalation. The nebulizer ultrasonic frequency is adjusted to produce particles in the 1-8μ diameter range (average 3μ). Aqueous solutions are prepared fresh and introduced into the chamber of the nebulizer. The output of the nebulizer is made available to the animal by directing a bias flow of aerosol through a y tube connected to the tracheal cannula. At the end of the exposure period, the animals are paralyzed with succinylcholine (1.2 mg/kg, i.v.) and mechanically respirated (Harvard rodent respirator) at 40 breaths/minute and 2.5 cc tidal volume. Animals are then challenged with a maximum constrictory dose of leukotriene E delivered intravenously 30 seconds after administration of the succinylcholine.
The change (cm H2 O) between pre and peak ventilatory pressure readings is averaged for three control animals and five drug treated animals. The percent inhibition is calculated from the following formula:
(Control-Drug Tested/Control)×100
When various drug concentrations are tested, the percent inhibition at each concentration is plotted as log concentration (abscissa) versus percent inhibition (ordinate) and the IC50 is determined from linear regression analysis.
In order to determine the aerosol half-life (t 1/2), the animals are prepared as described above, except that the time between aerosol exposure and challenge with leukotriene E is varied. All compounds are administered at the concentration necessary to inhibit leukotriene-induced bronchoconstriction by 80%. Biological half-life is calculated from plots of time (abscissa) versus log percent inhibition (ordinate).

[3] = molecular target: T1, PAF radioreceptor (dog platelets) (Canis lupus familiaris, UniProt A0A8I3NSH0); assay: PAF radioreceptor binding assay; conditions: 3H-PAF
T1 construct: Platelet rich plasma is prepared by centrifugation of citrate-treated dog blood; from tissue; host or cells: washed dog platelets
T1 sequence (A0A8I3NSH0 1-343): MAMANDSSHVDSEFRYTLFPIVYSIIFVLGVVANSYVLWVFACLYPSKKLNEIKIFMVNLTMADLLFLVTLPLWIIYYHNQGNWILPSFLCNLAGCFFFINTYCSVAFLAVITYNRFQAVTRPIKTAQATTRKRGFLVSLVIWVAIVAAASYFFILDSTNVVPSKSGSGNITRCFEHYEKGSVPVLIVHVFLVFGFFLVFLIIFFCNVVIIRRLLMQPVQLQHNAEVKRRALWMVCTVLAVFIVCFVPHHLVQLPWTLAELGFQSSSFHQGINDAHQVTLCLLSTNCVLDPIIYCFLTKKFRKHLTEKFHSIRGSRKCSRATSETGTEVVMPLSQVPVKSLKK
Description: (m) PAF Radioreceptor Binding Assay
Platelet rich plasma is prepared by centrifugation of citrate-treated dog blood. Acidification to pH 6.5 with 0.15M citric acid and centrifugation for 10 minutes at 1000 g yields a platelet pellet which is then washed by resuspension in EDTA-Phosphate Buffered Saline (PBS) and recentrifuged. The washed platelet preparation is adjusted to 2×10^7 platelets/50 μl in 0.1% BSA-PBS.
To a […] microfuge tube containing 50 μl silicone oil (specific gravity 1.023) is added buffer, PAF standard or analog, or an extract to bring the aqueous volume to 150 μl. 50 μl of ^3 H-PAF (10,000 cpm, 45 Ci/mM) is added followed by 2×10^7 dog platelets. After mixing, incubating for 10 minutes at room temperature, and centrifuging for 1 minute in a Beckman Microfuge B (8000 g), the pellet is removed by clipping off the tip of the tube, solubilizing the platelets with 200 μl of 50% methanol, and counting in 10 ml of Aquasol.

Row | SMILES | IC50 [1] [µM] | Biological half-life [2] [min] | IC50 [3] [µM]
1 | CC(C)c1ccc2nc3ccc(C(=O)NCCCCn4ccnc4)cn3c(=O)c2c1 [Compound A, N-[4-(1H-imidazol-1-yl)butyl]-2-(1-methylethyl)-11-oxo-11H-pyrido[2,1-b]quinazoline-8-carboxamide] | 1 | 56 | –
2 | CC(C)c1ccc2nc3ccc(C(=O)NCCCCc4cccnc4)cn3c(=O)c2c1 [Compound B, 2-(1-methylethyl)-N-[4-(3-pyridyl)butyl]-11-oxo-11H-pyrido[2,1-b]quinazoline-8-carboxamide] | 1 | 7 | 0.45
3 | CC(C)c1ccc2nc3ccc(C(=O)NCCCCCCc4cccnc4)cn3c(=O)c2c1 [Compound C, 2-(1-Methylethyl)-N-[6-(3-pyridyl)hexyl]-11-oxo-11H-pyrido[2,1-b]quinazoline-8-carboxamide] | – | – | 1
